This assay has as its system outward potassium currents. Put plainly: inside-out whole-cell patch clamp recording of outward potassium currents. It counts as cell-based. How it is done: These currents were elicited by a test voltage of+40 mV preceded by a 500 ms long prepulse to−110 mV from a holding potential of−70 mV. […] Current traces were obtained in 5 minute time intervals.
FIG. 14 illustrates a graph showing outward potassium currents with test compounds according to an embodiment of the invention. […] Each test increment followed a 0.5 second long hyperpolarizing prepulse to−110 mV, while keeping the membrane potential at−70 mV between pulses. In the first (left-most) plot, measurements of current were taken while the cell was bathed in a control solution. The cell was then placed in a 10 mM 4-AP bath solution, and the measurements of the second (middle) plot were recorded. The chemical called 4-AP is a pharmacological blocker of these ion channels. The cell was then washed of the 4-AP solution, and the cell was again bathed in the control solution. Measurements were recorded as in the first and second plots, and the results are shown in the third (right-most) plot. For purposes of an inside-out whole cell patch clamp measurement, the control and 4-AP baths represented the intracellular region.
FIG. 15 illustrates a graph showing potassium current amplitude (I) behavior as a function of applied membrane voltages (V) according to an embodiment of the invention. […] Here, the black square points correspond to the left-most plot in FIG. 14, the black circles correspond to the center plot of FIG. 14 showing the reduced potassium current in the presence of 10 mM 4-AP bath solution, and the white circles correspond to measurements after the 4-AP was washed away in the right-most plot of FIG. 14.
This current is approximately 50% lower than in the left and right plots, which correspond to measurements in the control solution before and after drug action, respectively.
On the technique in general: Patch clamp records ionic current or voltage across a cell membrane.

Entries after “also recorded” stand apart in the source; their conditions may differ.

The results in this text go back to patent publication US7465558B2, “Perfusion system and apparatus for automated multi-channel patch-clamp recordings utilizing inside-out whole-cell configuration” (Wyeth, priority 2004, dated 2008).

Consider `Nc1ccncc1` [4-AP], for which the “block of potassium current amplitude” value (10 mM 4-AP bath solution representing the intracellular region, first cell, FIG. 14) is recorded as “about 50%”. The “current across the membrane relative to current in control solution” value (10 mM 4-AP bath solution, first cell, current amplitude versus membrane voltage, FIG. 15) is given as “less than 50%”. Besides, where the note is “first cell, after washing and return to control solution, FIG. 14/15”, the “reversibility of the effect with wash-out perfusion” value was “fully (or at least substantially) reversible; also recorded: reversible process”. Besides, the “current lower than in control solution before and after drug action” value (second cell, in the presence of 4-AP, FIG. 16) is “approximately 50%”. The “current amplitude after washing compared with control substance” value (second cell, wash-out, FIG. 17) is on record as “nearly equal”.
